# Legend:
# [1] = Measurement of plasma protein binding (equilibrium dialysis); format: in vitro ADME; conditions: pooled human plasma, human plasma vs buffer pH 7.4, 37° C., 10 μM compound, read-out: % Bound Human Plasma (converted)
# Method: The extent of plasma protein binding was determined via equilibrium dialysis of a compound between human plasma and aqueous buffer at 37° C. and determination of the concentration of compound in the plasma and buffer by HPLC-MS/MS.
# Dialysis cells (molecular weight cut-off 5000) were prepared by rinsing with water followed by soaking in the dialysis buffer for a minimum of 1 hour. The dialysis buffer was isotonic buffered saline pH 7.4. Stock solutions of compound in dimethylsulphoxide were prepared at a concentration of 1 mM. Frozen pooled Human plasma was obtained from volunteers.
# The stock DMSO solution of a compound was added to the plasma at a ratio of 10 μl of DMSO to each ml of plasma.
# Dialysis cells were then prepared and one half of the cell filled with 750 μl of dialysis buffer and the other half of the cell with 750 μl of plasma solution of compound. Once prepared the cells were sealed and immersed in a water bath at 37° C. These cells were then rotated for a minimum of 4 hours to equilibrate.
# After equilibration 500 μl of the buffer samples were removed and added to HPLC vials along with 100 μl of plasma (sample in 6-fold diluted plasma), and 100 μl of the plasma samples were removed and added to HPLC vials along with 500 μl of dialysis buffer (sample in 6-fold diluted plasma).
# The samples were then analysed using HPLC-MS/MS.
# The concentration of compound in the samples were determined using MassLynx version 4.0 software (produced by Waters/Micromass) that automatically calculated a calibration curve and the concentration of compound in the cells. Plasma protein binding was determined from the calibration curve as the percentage of compound bound in human plasma (% bound) using the following equation wherein the factor in the numerator accounts for the small dilution of the aqueous samples with plasma and the factor of 6 in the denominator serves to correct for the 6-fold dilution of the plasma samples with buffer;
# CCR4 [2] = biological target: T1, CCR4 (Homo sapiens, UniProt P51679); test: Predicted whole blood potency; conditions: calculated: CCR4 pIC50+Log((100−% Bound)/100)
# T1 construct: host or cells: CHO-K1
# T1 sequence (P51679 1-360): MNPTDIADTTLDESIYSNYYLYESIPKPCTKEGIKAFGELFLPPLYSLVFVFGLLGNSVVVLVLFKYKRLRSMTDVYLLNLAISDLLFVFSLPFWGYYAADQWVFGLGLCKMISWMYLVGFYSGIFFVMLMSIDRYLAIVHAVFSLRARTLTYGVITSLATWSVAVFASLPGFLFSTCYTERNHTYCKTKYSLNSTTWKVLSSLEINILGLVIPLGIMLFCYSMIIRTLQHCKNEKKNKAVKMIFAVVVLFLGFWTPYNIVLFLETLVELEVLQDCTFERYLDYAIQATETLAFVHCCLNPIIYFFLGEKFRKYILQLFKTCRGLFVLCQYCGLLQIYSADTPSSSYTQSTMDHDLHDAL
# Method: Predicted whole blood potency is a measure of the combined effects of CCR4 activity and plasma protein binding, and is calculated by the formula: Whole Blood Potency=CCR4 pIC50+Log((100−% Bound)/100).
# CCR4 [3] = biological target: T1, CCR4; test: FMAT whole cell binding assay; conditions: CHO-K1 cells expressing human recombinant CCR4; inhibition of FB-MDC binding; read-out: FMAT CCR4 pIC50 (converted)
# Method: CHO-K1 cells stably expressing the human recombinant CCR4 receptor (Euroscreen; Brussels, Belgium) were cultured in NUT.MIX.F—12(HAM) medium with glutamax-1, containing 10% (v/v) foetal bovine serum and 400 μg ml^−1 geneticin.
# Cells were harvested at approximately 70% confluence by treatment with a cell dissociation buffer, and seeded at 5×10^3 cells/100 μl culture medium into wells of a black Costar clear-bottomed 96-well microtitre plates. Plates were incubated overnight at 37° C. in 5% CO2 and used the following day.
# Before use, the cell plates were washed twice with 100 μl Hanks balanced salt solution (HBSS).
# After two hours incubation in the dark at room temperature, the plates were analysed in an FMAT8100 reader (Applied Biosystems) to measure fluorescence that was associated with binding of FB-MDC to the cells.
# [4] = test system: salmonella typhimurium LT2 strains TA98 and TA100; test: Metabolite testing: mutagenicity (Maron and Ames test); format: cell-based; conditions: strains TA98 and TA100, with or without metabolic activation (rat liver S9)
# Method: 5-Fluoro-3-methoxy-2-pyrazinamine and 6-fluoro-3-methoxy-2-pyrazinamine were tested for mutagenicity according to the test procedure of Maron and Ames described in Mutation Res. 1983; 113:173-215 using salmonella typhimurium LT2 strains TA98 and TA100. For metabolic activation a homogenate of liver from Aroclor 1254-treated rats (post-mitochondrial fraction (S9) purchased from Molecular Toxicology Inc., Boone, N.C., USA) was added to agar plates (without histidine) together with the test compound and the bacterial tester strains; the complete activation system employed was: phosphate buffer (0.1 mol/L, pH 7.4):100 mmol/L; magnesium chloride: 8 mmol/L; potassium chloride: 33 mmol/L; nicotinamide adenine dinucleotide phosphate: 4 mmol/L; glucose-6-phosphate:5 mmol/L; and rat liver homogenate (S9 fraction):10% v/v. The mean number of revertant colonies and sample standard deviation (from control plates) were calculated for each test group. A test compound was considered to be mutagenic when the following criteria were satisfied: i) the number of revertant colonies in any strain increased in the presence of one or more dose of the test compound, with or without metabolic activation ii) there was a dose-related increase in the number of revertant colonies, and iii) any increase was reproducible.
SMILES,fraction unbound at 10 µM [1],Whole Blood Potency (CCR4 [2]),IC50 (CCR4 [3]),mutagenicity test result [4]
"COc1nccnc1NS(=O)(=O)c1cccc(Cl)c1Cl [Ex. 30 WO03/059893, 2,3-dichloro-N-(3-methoxy-2-pyrazinyl)benzenesulphonamide, reference compound]",0.011,5.7,20 nM,
"COc1nc(F)cnc1NS(=O)(=O)c1cccc(Cl)c1Cl [Example 2, 2,3-dichloro-N-(5-fluoro-3-methoxypyrazin-2-yl)-benzenesulfonamide]",0.006,6.3,3.16 nM,
"COc1nc(F)cnc1NS(=O)(=O)c1cccc(Cl)c1C [Example 7, 3-Chloro-N-(5-fluoro-3-methoxypyrazin-2-yl)-2-methyl-benzenesulfonamide]",0.004,6.0,3.98 nM,
"COc1nc(CO)c(F)nc1NS(=O)(=O)c1cccc(Cl)c1Cl [Example 4, 2,3-Dichloro-N-[6-fluoro-5-(hydroxymethyl)-3-methoxypyrazin-2-yl]-benzenesulfonamide]",0.013,5.9,15.8 nM,
COc1ncc(F)nc1N [6-fluoro-3-methoxy-2-pyrazinamine],,,,negative
"COc1ncc(F)nc1NS(=O)(=O)c1cccc(Cl)c1Cl [Example 3, 2,3-Dichloro-N-(6-fluoro-3-methoxypyrazin-2-yl)-benzenesulfonamide]",0.003,6.0,3.16 nM,
"COc1nc(Cl)cnc1NS(=O)(=O)c1cccc(Cl)c1Cl [Ex. 5 WO03/059893, 2,3-dichloro-N-(5-chloro-3-methoxy-2-pyrazinyl)benzenesulphonamide, reference compound]",0.002,5.2,12.6 nM,
"COc1nc(F)c(CO)nc1NS(=O)(=O)c1cccc(Cl)c1Cl [Example 6, 2,3-Dichloro-N-[5-fluoro-6-(hydroxymethyl)-3-methoxypyrazin-2-yl]-benzenesulfonamide]",0.005,5.9,6.31 nM,
"COc1nc(F)cnc1NS(=O)(=O)c1cccc(Cl)c1F [Example 5, 3-Chloro-2-fluoro-N-(5-fluoro-3-methoxypyrazin-2-yl)-benzenesulfonamide]",0.011,6.0,10 nM,
"COc1nc(F)cnc1NS(=O)(=O)c1cccc(F)c1Cl [Example 1, 2-Chloro-3-fluoro-N-(5-fluoro-3-methoxypyrazin-2-yl)-benzenesulfonamide]",0.01,6.3,5.01 nM,
"COc1nc(F)cnc1N [5-fluoro-3-methoxy-2-pyrazinamine, 5-Fluoro-3-methoxy-2-pyrazinamine]",,,,negative
"COc1nc(Br)cnc1NS(=O)(=O)c1cccc(Cl)c1Cl [Ex. 8 WO03/059893, 2,3-dichloro-N-(5-bromo-3-methoxy-2-pyrazinyl)benzenesulphonamide, reference compound]",0.002,5.6,5.01 nM,
